molecular target: T1, mPGES-1 (Homo sapiens, UniProt O14684); assay: mPGES-1 enzyme assay (conversion of PGH2 to PGE2, HPLC analysis); format: biochemical; settings: mPGES-1 expressed in E. coli, membrane fraction; 25 min preincubation, 60 s PGH2 reaction, room temperature
T1 construct: made in house; host or cells: E. coli
T1 sequence (O14684 1-152): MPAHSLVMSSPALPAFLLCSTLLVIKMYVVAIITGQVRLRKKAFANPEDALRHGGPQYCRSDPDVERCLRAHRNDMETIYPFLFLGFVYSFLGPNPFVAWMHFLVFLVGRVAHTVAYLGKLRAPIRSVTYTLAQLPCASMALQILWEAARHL
Protocol: In the assay mPGES-1 catalyzes the reaction where the substrate PGH2 is converted to PGE2. mPGES-1 is expressed in E. coli and the membrane fraction is dissolved in 20 mM NaPi-buffer pH 8.0 and stored at −80° C. In the assay mPGES-1 is dissolved in 0.1M KPi-buffer pH 7.35 with 2.5 mM glutathione. The stop solution consists of H2O/MeCN (7/3), containing FeCl2 (25 mM) and HCl (0.15 M). The assay is performed at room temperature in 96-well plates. Analysis of the amount of PGE2 is performed with reversed phase HPLC (Waters 2795 equipped with a 3.9×150 mm C18 column). The mobile phase consists of H2O/MeCN (7/3), containing TFA (0.056%), and absorbance is measured at 195 nm with a Waters 2487 UV-detector.
The following is added chronologically to each well: • 1. 100 μL mPGES-1 in KPi-buffer with glutathione. Total protein concentration: 0.02 mg/mL. • 2. 1 μL inhibitor in DMSO. Incubation of the plate at room temperature for 25 minutes. • 3. 4 μL of a 0.25 mM PGH2 solution. Incubation of the plate at room temperature for 60 seconds. • 4. 100 μL stop solution. • 180 μL per sample is analyzed with HPLC.

IC50 [nM] | Structure (SMILES)
600 | CC(C)Oc1ccc(-c2ccc3oc(-c4cc(NS(=O)(=O)c5cc(Cl)ccc5Cl)ccc4Cl)nc3c2)cc1 [Example 4, 2,5-Dichloro-N-{4-chloro-3-[5-(4-isopropoxyphenyl)benzoxazol-2-yl]phenyl}benzenesulfonamide]
130 | Cc1cc(C)cc(-c2cc(-c3nc4cc(C)ccc4o3)cc(NC(=O)c3ccccc3C(F)(F)F)c2N)c1 [Example 5, N-[2-Amino-3′,5′-dimethyl-5-(5-methylbenzoxazol-2-yl)biphenyl-3-yl]-2-trifluoromethylbenzamide]
270 | CC(C)(C)c1ccc2oc(-c3cc(COc4cccc(Cl)c4)cc(NC(=O)c4ccccc4C(F)(F)F)c3)nc2c1 [Example 7, N-[3-(5-tert-Butylbenzoxazol-2-yl)-5-(3-chlorophenoxymethyl)phenyl]-2-trifluoromethylbenzamide]

— patent US20100004301A1, “Benzoxazoles Useful in the Treatment of Inflammation” (priority 2006, published 2010)
